Columns and labels:
Format in all cases: cell-based, mouse
[1] = system: NIH3T3 cells overexpressing PKCalpha-KN; test: MTT cell viability, PKCalpha-KN overexpressing cells vs parental line; conditions: 3 to 4 days
Procedure: (§1) With regard to the function-known genes, the genes shown in the left column of Table 2 were used. With regard to the drugs, those shown in Table 1 were dissolved in DMSO to an extent of 100-fold of the maximum concentration for the search of the drugs and used. With regard to the cells, incubated NIH3T3 or ras-NIH3T3 cells were used.
(§2) Full-length cDNA of each function-known genes was incorporated into an expression vector (pRc-CMV, etc.) and transfected into NIH3T3 cells by a common method. Transformed cells were isolated using the resistance to G-418 as an index and the expression of the transfected gene in each cell was investigated by Western blotting method to select a highly expressing line.
(§3) Cell viabilities were measured according to the following procedures.
(§4) 1) From the 2nd to the 11th rows of a 96-well plate were filled with DMEM (50 μl). The 12th row was filled with 100 μl of DMEM.
(§5) 2) The 1st row was filled with 98 μl of DMEM.
(§6) 3) Drugs (2 μl each) were added into the 1st row.
(§7) 4) Continuous double-dilution was conducted from the 1st to the 9th rows. Fifty μl were taken out from the 9th row and discarded. The plate was preserved in a CO2 incubator.
(§8) 5) Cells (each high-expressing cells and the parental cell line) were detached from the medium using a trypsin solution, suspended in 10% CS-DMEM and transferred to a test tube and cell numbers (cell/ml) were counted.
(§9) 6) The cells were diluted to a concentration of 1×10^5 cells/ml, and 50 μl of the cell suspension were added to the 1st to the 11th rows of the plate followed by gently stirring.
(§10) 7) The plate was transferred to the CO2 incubator and incubated for 3 to 4 days.
(§11) 8) MTT (5 mg/ml in PBS) (10 μl) was added to the 1st to the 12th rows of the plate and incubated in the CO2 incubator at 37° C. for 4 hours.
(§12) 9) A reaction stop solution (0.04N HCl in isopropanol) (150 μl) was added followed by mixing well and being allowed to stand at room temperature for about 2 hours.
(§13) 10) Coloration of formazan which was a metabolite of the MTT dye was measured using a microplate reader. The measurement wavelength was 574 nm and the reference wavelength was 655 nm. The 10th and the 11th rows of the plate were 100% controls and the 12th row was a 0% control.
(§14) As an index for the sensitivity of highly gene-expressing cells and the parental cell line to various drugs, each of the IC40 values thereof was specified and ratios of the IC40 values were calculated. […] After that, logarithmic values of ratios of IC40 values were calculated from each gene.

[2] = system: NIH3T3 cells overexpressing p38-DN; test: MTT cell viability, p38-DN overexpressing cells vs parental line; conditions: p38-DN high-expressing cells / parental cell line, 3 to 4 days
Procedure: as §1, §2, §3, §4, §5, §6, §7, §8, §9, §10, §11, §12, §13, §14

[3] = system: NIH3T3 cells overexpressing caspase-3; test: MTT cell viability, caspase-3 overexpressing cells vs parental line; conditions: caspase-3 high-expressing cells / parental cell line, 3 to 4 days
Procedure: as §1, §2, §3, §4, §5, §6, §7, §8, §9, §10, §11, §12, §13, §14

[4] = system: NIH3T3 cells overexpressing HNF3b; test: MTT cell viability, HNF3b overexpressing cells vs parental line; conditions: HNF3b high-expressing cells / parental cell line, 3 to 4 days
Procedure: as §1, §2, §3, §4, §5, §6, §7, §8, §9, §10, §11, §12, §13, §14

[5] = system: NIH3T3 cells overexpressing CaMKIIa; test: MTT cell viability, CaMKIIa overexpressing cells vs parental line; conditions: CaMKIIa high-expressing cells / parental cell line, 3 to 4 days
Procedure: as §1, §2, §3, §4, §5, §6, §7, §8, §9, §10, §11, §12, §13, §14

[6] = system: NIH3T3 cells overexpressing HNF4; test: MTT cell viability, HNF4 overexpressing cells vs parental line; conditions: HNF4 high-expressing cells / parental cell line, 3 to 4 days
Procedure: as §1, §2, §3, §4, §5, §6, §7, §8, §9, §10, §11, §12, §13, §14

[7] = system: NIH3T3 cells overexpressing m-calpain; test: MTT cell viability, m-calpain overexpressing cells vs parental line; conditions: m-calpain high-expressing cells / parental cell line, 3 to 4 days
Procedure: as §1, §2, §3, §4, §5, §6, §7, §8, §9, §10, §11, §12, §13, §14

[8] = system: NIH3T3 cells overexpressing CBP8; test: MTT cell viability, CBP8 overexpressing cells vs parental line; conditions: CBP8 high-expressing cells / parental cell line, 3 to 4 days
Procedure: as §1, §2, §3, §4, §5, §6, §7, §8, §9, §10, §11, §12, §13
(§15) As an index for the sensitivity of highly gene-expressing cells and the parental cell line to various drugs, each of the IC40 values thereof was specified and ratios of the IC40 values were calculated. FIG. 2 and FIG. 3 are the examples where ratios of IC40 values were calculated from a curve showing the dependency on the concentration of the chemical versus the viability. After that, logarithmic values of ratios of IC40 values were calculated from each gene.

[9] = system: NIH3T3 cells overexpressing PDGF-R; test: MTT cell viability, PDGF-R overexpressing cells vs parental line; conditions: PDGF-R high-expressing cells / parental cell line, 3 to 4 days
Procedure: as §1, §2, §3, §4, §5, §6, §7, §8, §9, §10, §11, §12, §13, §15

[10] = system: NIH3T3 cells overexpressing HSP4O; test: MTT cell viability, HSP4O overexpressing cells vs parental line; conditions: HSP4O high-expressing cells / parental cell line, 3 to 4 days
Procedure: as §1, §2, §3, §4, §5, §6, §7, §8, §9, §10, §11, §12, §13, §15

[11] = system: NIH3T3 cells overexpressing caspase-1; test: MTT cell viability, caspase-1 overexpressing cells vs parental line; conditions: caspase-1 high-expressing cells / parental cell line, 3 to 4 days
Procedure: as §1, §2, §3, §4, §5, §6, §7, §8, §9, §10, §11, §12, §13, §14

[12] = system: NIH3T3 cells overexpressing Regucalcin; test: MTT cell viability, Regucalcin overexpressing cells vs parental line; conditions: Regucalcin high-expressing cells / parental cell line, 3 to 4 days
Procedure: as §1, §2, §3, §4, §5, §6, §7, §8, §9, §10, §11, §12, §13, §15

[13] = system: NIH3T3 cells overexpressing coup; test: MTT cell viability, coup overexpressing cells vs parental line; conditions: coup high-expressing cells / parental cell line, 3 to 4 days
Procedure: as §1, §2, §3, §4, §5, §6, §7, §8, §9, §10, §11, §12, §13, §15

[14] = system: NIH3T3 cells overexpressing p16/INK4A; test: MTT cell viability, p16/INK4A overexpressing cells vs parental line; conditions: p16/INK4A high-expressing cells / parental cell line, 3 to 4 days
Procedure: as §1, §2, §3, §4, §5, §6, §7, §8, §9, §10, §11, §12, §13, §15

[15] = system: NIH3T3 cells overexpressing cystatin E; test: MTT cell viability, cystatin E overexpressing cells vs parental line; conditions: cystatin E high-expressing cells / parental cell line, 3 to 4 days
Procedure: as §1, §2, §3, §4, §5, §6, §7, §8, §9, §10, §11, §12, §13, §15

[16] = system: NIH3T3 cells overexpressing Ha-ras; test: MTT cell viability, drug sensitivity of Ha-ras overexpressing cells vs parental line; conditions: Ha-ras high-expressing cells / parental cell line, 3 to 4 days
Procedure: as §1, §2, §3, §4, §5, §6, §7, §8, §9, §10, §11, §12, §13, §14

[17] = system: NIH3T3 cells overexpressing Ki-ras; test: MTT cell viability, Ki-ras overexpressing cells vs parental line; conditions: Ki-ras high-expressing cells / parental cell line, 3 to 4 days
Procedure: as §1, §2, §3, §4, §5, §6, §7, §8, §9, §10, §11, §12, §13, §15

[18] = system: NIH3T3 cells overexpressing HNF1; test: MTT cell viability, HNF1 overexpressing cells vs parental line; conditions: HNF1 high-expressing cells / parental cell line, 3 to 4 days
Procedure: as §1, §2, §3, §4, §5, §6, §7, §8, §9, §10, §11, §12, §13, §14

[19] = system: NIH3T3 cells overexpressing caspase-2; test: MTT cell viability, caspase-2 overexpressing cells vs parental line; conditions: caspase-2 high-expressing cells / parental cell line, 3 to 4 days
Procedure: as §1, §2, §3, §4, §5, §6, §7, §8, §9, §10, §11, §12, §13, §15

[20] = system: NIH3T3 cells overexpressing N-ras; test: MTT cell viability, N-ras overexpressing cells vs parental line; conditions: N-ras high-expressing cells / parental cell line, 3 to 4 days
Procedure: as §1, §2, §3, §4, §5, §6, §7, §8, §9, §10, §11, §12, §13, §15

[21] = PKCalpha-KN (first of two lines) high-expressing cells / parental cell line
[22] = PKCalpha-KN (second of two lines) high-expressing cells / parental cell line

Row | SMILES | logarithmic value of ratio of IC40 values [1, 21] | logarithmic value of ratio of IC40 values [1, 22] | logarithmic value of ratio of IC40 values [2] | logarithmic value of ratio of IC40 values [3] | logarithmic value of ratio of IC40 values [4] | logarithmic value of ratio of IC40 values [5] | logarithmic value of ratio of IC40 values [6] | logarithmic value of ratio of IC40 values [7] | logarithmic value of ratio of IC40 values [8] | logarithmic value of ratio of IC40 values [9] | logarithmic value of ratio of IC40 values [10] | logarithmic value of ratio of IC40 values [11] | logarithmic value of ratio of IC40 values [12] | logarithmic value of ratio of IC40 values [13] | logarithmic value of ratio of IC40 values [14] | logarithmic value of ratio of IC40 values [15] | logarithmic value of ratio of IC40 values [16] | logarithmic value of ratio of IC40 values [17] | logarithmic value of ratio of IC40 values [18] | logarithmic value of ratio of IC40 values [19] | other results
1 | CN(C)CCCn1cc(C2=C(c3c[nH]c4ccccc34)C(=O)NC2=O)c2ccccc21 [GF109203X] | 0.22 | 0.62 | 0.58 | 0.82 | 0.21 | 0.04 | 0.40 | 0.35 | 0.16 | 0.00 | −0.07 | 0.23 | −0.05 | 0.46 | 0.48 | 0.27 | −0.39 | −0.40 | 0.345 | 0.92 | –
2 | CN[C@@H]1C[C@H]2O[C@@](C)([C@@H]1OC)n1c3ccccc3c3c4c(c5c6ccccc6n2c5c31)C(=O)NC4 [Staurosporine] | – | – | −0.05 | – | – | 0.12 | 0.04 | – | 0.19 | 0.24 | 0.30 | 0.22 | −0.09 | 0.08 | −0.22 | 0.40 | 0.30 | 0.38 | – | 0.18 | logarithmic value of ratio of IC40 values [20]: 0.24
3 | CC(C)(C)C(=O)Oc1ccc(S(=O)(=O)Nc2ccccc2C(=O)NCC(=O)O)cc1 [compound 5046] | 0.10 | −0.05 | −0.04 | 0.40 | −0.25 | – | – | −0.04 | 0.12 | 0.36 | −0.15 | 0.40 | −0.38 | −0.04 | 0.22 | 0.36 | – | 0.51 | 0.05 | 0.51 | logarithmic value of ratio of IC40 values [20]: 0.23
